Data: patent US20050221422A1, “Novel galactose transferases, peptides thereof and nucleic acid encoding the same” (priority 2002, published 2005)
Ends that are not written are not given here. T(GalNAc) = N-acetylgalactosamine-glycosylated threonine

Tests used:
[1] = test system: C1Gal-T2; test: Screening for acceptor substrate of C1Gal-T2 (UDP-[14C]-Gal transfer, TLC, LSC-C1Gal-T2 cell extract); type: biochemical, human; details: LSC-C1Gal-T2 cell extract as enzyme source; acceptor substrate 10 nmol; 37° C. for two hours
Experimental: The reaction system below was used to investigate C2 acceptor substrates. To investigate whether pNp-α-GalNAc or pNp-β-GalNAc (both from Sigma) functioned as acceptors, each was used as an “acceptor substrate” in the following reaction solution:
The reaction solution (the parentheses show final concentrations) comprised acceptor substrate (10 nmol), HEPES buffer (pH 7.4) (14 mM), MnCl2 (12.5 mM), UDP-Gal (250 μM), and UDP-[^14C]-Gal (175 nCi). 5 μl of enzyme solution was added to this reaction solution, followed by the addition of H2O to a total volume of 20 μl. The enzyme solution was prepared by suspending cells (5×10^6 cells) in 50 ml of cell lysing buffer (HEPES buffer (pH 7.4) (20 mM), NaCl (154 mM) and TritonX-100 (1%)), incubating at 4° C. for 15 minutes in a water bath type ultrasonic homogenizer, centrifuging, and then obtaining the supernatant for the enzyme solution. The aforementioned reaction mixture was reacted at 37° C. for two hours. Following completion of the reaction, 200 μl of H2O was added to the mixture, which was gently centrifuged to obtain the supernatant. […] After drying the plate, the amount of radioactivity taken up by the product was measured using the Bio Image Analyzer FLA3000 (Fuji Photo Film).

[2] = biological target: T1, C1Gal-T3 (Homo sapiens, UniProt P0DN25); test: Galactose transferring activity of C1Gal-T3 recombinant enzyme on N-acetylgalactosaminyl peptides; type: biochemical; details: C1Gal-T3 recombinant enzyme expressed in COS-1 cells as enzyme source
T1 construct: a carboxyl terminal region (enzyme activity region) minus the transmembrane region at the amino terminus; preprotrypsin secretion signal (N); made in house; host or cells: COS-1 cells, transient transfection with pFLAG-C1Gal-T3; purified from culture supernatant on anti-FLAG M1 agarose
Experimental: The reaction solution (parentheses indicate final concentrations) comprised acceptor substrate (5 pmol), MES buffer (pH 6.5) (100 mM), MnCl2 (20 mM), ATP (2 mM), and UDP-Gal (0.5 mM). 5 μl of […] enzyme source was added to this reaction solution, which was then brought to a total volume of 20 μl by adding H2O.
The above reaction mixture was reacted at 37° C. for eight hours. After completion of the reaction, 60 μl of H2O was added, and the mixture was gently centrifuged to acquire the supernatant. This supernatant was purified through an Ultra Free MC Column (Millipore), and 30 μl of thus-purified solution was analyzed using high-performance liquid chromatography (HPLC). CAPCELL PAK C18 UG120 (Shiseido) was used as the column, 0.1% trifluoroacetic acid was used as the separation buffer, and the elution was carried out over an acetonitrile concentration gradient of 15-30%. The flow rate was 1 ml/minute.
Galactose transferring activity was measured using the C1Gal-T3 recombinant enzyme expressed in COS-1 cells as an enzyme source, and using the N-acetylgalactosaminyl peptides used in Example 5 as acceptor substrates.

T1 sequence (P0DN25 30-315 limits assumed): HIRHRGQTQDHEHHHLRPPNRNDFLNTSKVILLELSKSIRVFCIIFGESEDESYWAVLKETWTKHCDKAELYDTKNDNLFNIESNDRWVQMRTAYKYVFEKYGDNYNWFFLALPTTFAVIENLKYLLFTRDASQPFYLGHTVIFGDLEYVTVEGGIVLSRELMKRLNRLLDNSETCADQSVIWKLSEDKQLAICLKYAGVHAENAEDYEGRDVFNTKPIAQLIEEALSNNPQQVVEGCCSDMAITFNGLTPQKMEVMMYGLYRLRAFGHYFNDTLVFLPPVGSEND

With CC(=O)N[C@H]1[C@@H](Oc2ccc([N+](=O)[O-])cc2)O[C@H](CO)[C@H](O)[C@@H]1O [pNp-α-GalNAc] the “reaction as acceptor substrate (galactose transfer from UDP-Gal)” value [1] was “reacted strongly”.
CC(=O)N[C@H]1[C@H](Oc2ccc([N+](=O)[O-])cc2)O[C@H](CO)[C@H](O)[C@@H]1O [pNp-β-GalNAc] was tested, and the “reaction as acceptor substrate (galactose transfer from UDP-Gal)” value [1] was “did not react”.
In the case of “VPST(GalNAc)PPTPSPSTPPTPSPS ({Val-Pro-Ser-T(GalNAc)}-PPTPSPSTPPTPSPS) [4-GalNAc-HP, human IgA1 hinge peptide with GalNAc on the 4th residue]”, the galactose transferring activity [2] is reported as “could be confirmed”.
